Data published in US9943500B2, “Methods of treating topical microbial infections” (LUODA PHARMA PTY LIMITED, priority 2013, dated 2018).
Converted amounts (≈) assume the structure as drawn. Where two headings read alike, the source gives them in different places.

How the values were obtained:
MRSA 9 = experiment: Macrodilution time-kill assay (viable counts); conditions: 24 hours
Method: (§1) Due to the detection limit of the OD measurements, the time-kill assays were also performed in macrodilution. In 15 mL tubes, 9 mL volumes of the test compounds in CAMHB were prepared at one, four and eight times the MIC concentration and 9 mL volumes of ampicillin were prepared in CAMHB at one and four times the MIC. 1 mL of a 4 to 5×10^6 bacterial suspension (as prepared for MIC testing) was added to each of the tubes as well as a growth control tube containing only 9 mL of CAMHB. These tubes were incubated at 37° C. in an orbital shaker rotating at 100 rpm for 24 hours. At 0, 1, 4, 8, 12 and 24 hours after addition of the bacteria, 100 μL samples were removed from each tube and serial diluted in 9.1 g/L saline solution. The dilutions were then plated in duplicate onto plate count agar and incubated for 24 hours at 37° C. After incubation, viable counts were obtained from the number of colonies visible on the agar and these were used to calculate the number of CFU/mL at each time point. For the macrodilution time-kill analysis, only the ATCC 49775 reference strain and MRSA 9 were assessed in order to further investigate the antibacterial activity against methicillin-resistant strains. These macrodilution time-kill assays were independently repeated and bactericidal activity was defined as a ≥3 log decrease in the number of CFU/mL.

[1] = test system: methicillin sensitive and methicillin-resistant staphylococci; experiment: Minimum inhibitory concentration assay, 42 Staphylococcus isolates (Example 1); assay type: cell-based
Method: Forty-two isolates of Staphylococcus of varying species and strain type were collected from isolate collections. Biochemical testing including coagulase, latex agglutination testing for protein A, Vogues-Proskauer tests and resistance to polymyxin B were used to identify the species of Staphylococcus. All isolates were also screened for resistance to various antimicrobials commonly used for the treatment of skin infections. This was performed using the disk diffusion method and resistance standards as outlined by the CLSI. The following antimicrobials were used: amoxicillin-clavulanic acid (30 μg), cephalothin (30 μg), clindamycin (2 μg), enrofloxacin (5 μg), erythromycin (15 μg), gentamicin (10 μg), imipenem (10 μg), oxacillin (1 μg), penicillin G (10 units), tetracycline (30 μg), 1:19 trimethoprim-sulfamethoxazole (25 μg) and vancomycin (30 μg).
Minimum inhibitory concentration tests were performed according to CLSI Standards (CLSI 2012). 90 μL of one of the test compound solutions, or ampicillin, was added to the end column of a 96 well plate that contained 90 μL of CAMHB in each well. The solutions were then serially diluted across the row, leaving 2 columns for positive and negative controls (FIG. 2). A bacterial suspension was prepared by adding fresh colonies obtained from an overnight culture on Sheep Blood Agar (SBA) to a 9.1 g/L saline solution. This suspension was adjusted to a concentration of between 4×10^8 and 5×10^8 CFU/mL. […] 1 mL of this suspension was added to 9 mL of saline before being added to all wells, excluding the negative control wells, in 10 μL volumes giving a final concentration of between 4×10^5 and 5×10^5 CFU/mL in each well. The tests were then incubated for 24 hours at 37° C. and then assessed both visually and using OD readings from a microplate reader at a wavelength of 600 nm. These tests were performed in duplicate but repeated if discrepancies were observed.
The minimum inhibitory concentration (MIC) was determined to be the lowest concentration of antibiotic that prevented growth of bacteria both visually and using OD readings. Direct statistical comparisons between the test compounds and ampicillin could not be performed in light of confidential information restrictions, such as restrictions on disclosure of information relating to the compound structure, such as molecular weight. Instead, MIC values were collated and used to determine the lowest concentration of each compound that was effective against 50% and 90% of isolates, referred to as the MIC50 and MIC90 respectively. These values as well as the range of MIC values were then used for direct comparisons between test compounds and for general comparisons with ampicillin.

[2] = test system: ATCC 49775 reference strain; experiment: Macrodilution time-kill assay (viable counts); conditions: 24 hours
Method: as §1

[3] = test system: 51 Australian bovine mastitis isolates, primarily S. aureus, S. agalactiae and S. uberis; experiment: Minimum inhibitory concentration assay, bovine mastitis isolates (Example 3); assay type: cell-based; conditions: all 51 isolates
Source text: Fifty-one dairy bovine mastitis isolates, encompassing a variety of bacterial species, were isolated from milk samples collected from dairy farms in rural South Australia by the University of Adelaide Ambulatory Clinic. Cellular morphology observed from Gram stains and catalase testing was used to differentiate Staphylococcus, Streptococcus and Corynebacterium species from Gram-negative species. Further biochemical testing including coagulase, Lancefield grouping, esculin hydrolysis and CAMP tests were used to identify the isolates to species level. Where biochemical test results were not definitive in identifying species, amplification and sequencing of the 16S ribosomal RNA gene was used to confirm the identity of the isolates.
Minimum inhibitory concentration tests were performed in the manner outlined by the CLSI (CLSI 2012). Test compounds were dispensed into a 96-well microtitre tray containing 90 μl of CAMHB in 90 μl volumes and serial diluted to obtain a concentration gradient ranging from 128 μg/ml to 0.25 μg/ml (see FIG. 24). For Streptococcus species, CAMHB was replaced with a CAMHB supplement with 4% lysed-sheep blood (4% LSB:CAMHB). 4% LSB:CAMHB was prepared by mixing 5 ml sheep blood to 5 ml milliQ water, and repeated freezing at −20° C. and thawing, followed by centrifuged for 20 min at 7000 rpm. 7 ml of the supernatant was removed and added to 93 mL of CAMB.
Bacterial suspensions were prepared by emulsifying fresh colonies obtained from an overnight culture on Sheep Blood Agar (SBA) in 4 mls of 9.1 g/l physiological saline to an optical density read at 600 nm (OD600 nm) between 1.00 and 1.20. Standardised bacterial suspensions were diluted 1:10 in physiological saline and dispensed into all wells, excluding the negative control wells, in 10 μL volumes giving a final concentration of between 4×10^5 and 5×10^5 CFU/mL in each well. 96-well microtitre trays were incubated for 24 hours at 37° C. in 5% CO2 and then assessed both visually and using OD readings from a microplate reader at a wavelength of 600 nm. These tests were performed in duplicate and repeated if discrepancies in MIC values were observed between replicates.
The minimum inhibitory concentration (MIC) was determined to be the lowest concentration of antibiotic that prevented growth of bacteria both visually and using OD readings. MIC values were collated and used to determine the lowest concentration of each compound effective against 50% and 90% of isolates, known as the MIC50 and MIC90 respectively. These values as well as the range of MIC values were then used for direct comparisons between test compounds and for general comparisons with ampicillin.

[4] = test system: methicillin-sensitive and methicillin-resistant strains of Staphylococcus; experiment: Minimum bactericidal concentration determination, Staphylococcus isolates (Example 1); conditions: for bactericidal activity (MBC testing): lower concentrations; for strain type for which bactericidal activity was more consistent: methicillin-sensitive versus methicillin-resistant strains
Method: Following determination of the MIC using the 96 well MIC plate, a variation of the drop plate method was used to determine minimum bactericidal concentration (MBC) for each of the test compounds. These were analysed using samples taken from the MIC plate following incubation. […] Each concentration was pipetted in duplicate with duplicates being pipetted on an inner ring of drops. The plates were incubated at 37° C. overnight and assessed the following day for growth. The MBC was defined as the concentration at which 99.9% of colonies were eradicated, which was visually assessed by a lack of growth on the agar where the drop was placed.

[5] = test system: ATCC 49775 reference strain; experiment: Microdilution time-kill assay (optical density); conditions: 48 hour period; one, four and eight times the MIC
Method: Time-kill assays were performed according to the M26-A guidelines of the CLSI, with modifications. The test compounds and ampicillin were serial diluted in CAMHB across the rows of a 96 well plate and a bacterial suspension was prepared and added in the same manner as the MIC testing. The 96 well plates were then incubated at 37° C. for 48 hours being removed at specific time points and OD for the positive control wells as well as one, four and eight times the MIC of the compound specific to the strain being tested were assessed using a spectrophotometer at a wavelength of 600 nm. The time points assessed were 0, 1, 2, 4, 8, 12, 24 and 48 hours after the addition of the bacterial suspension to the wells. Each test compound was tested in triplicate while ampicillin was tested in duplicate and this test was independently repeated. […] One strain from each of the categories of Staphylococcus in the isolate collection (methicillin-sensitive, methicillin resistant and coagulase negative) were selected as well as the ATCC reference strain for comparison. These strains were strains MSS 1, MSS 11, MRSA 9 and the ATCC 49775 reference strain.

[6] = cited from earlier work
[7] = dogs; cited from earlier work

Molecule | MIC50 and MIC90 values compared with ampicillin [1] | MIC90 ([3]; read-out: MIC90) [mg/L] | bactericidal activity (MBC testing) [4] | strain type for which bactericidal activity was more consistent [4] | also measured
CO[C@@H]1[C@@H](OC)[C@H](C)[C@@](O)(CC(=O)O)O[C@H]1[C@H](C)[C@H]1O[C@@]2(CC[C@@](C)([C@H]3CC[C@@](C)([C@@H]4O[C@@H]([C@H]5O[C@](C)(O)[C@H](C)C[C@@H]5C)C[C@@H]4O[C@@H]4C[C@H](OC)[C@@H](OC)[C@H](C)O4)O3)O2)C[C@H](O)[C@H]1C [LP 6315, Maduramicin] | considerably lower than ampicillin | 4 (≈ 4.36 µM) | some bactericidal activity in lower concentrations | more consistently for methicillin-sensitive strains | decrease in colonies (MRSA 9; four times the MIC): > 3 log10; bactericidal or bacteriostatic (time-kill) ([2]; most concentrations, ATCC 49775 and MRSA 9): bacteriostatic; MBC50 rank among test compounds ([4]; methicillin-resistant isolates): lowest MBC50 values; growth (optical density) compared to growth control [5]: prevented the growth
Narasin [LP 4525] | considerably lower than ampicillin | – | some bactericidal activity in lower concentrations | more consistently for methicillin-sensitive strains | –
CC[C@@H](C(=O)[C@@H](C)[C@@H](O)[C@H](C)[C@@H]1O[C@@H]([C@@H](CC)C(=O)O)CC[C@@H]1C)[C@H]1O[C@]2(C=C[C@@H](O)[C@]3(CC[C@@](C)([C@H]4CC[C@](O)(CC)[C@H](C)O4)O3)O2)[C@H](C)C[C@@H]1C [LP 1088, Salinomycin] | considerably lower than ampicillin | 2 (≈ 2.66 µM) | some bactericidal activity in lower concentrations | more consistently for methicillin-sensitive strains | toxicity after accidental exposure ([6]; accidental inhalation and swallowing of about 1 mg/kg, human): severe acute and chronic salinomycin toxicity; acceptable daily intake (ADI) ([6]; humans, European Food Safety Authority risk assessment): 5 µg/kg; daily intake leading to neurotoxic effects (myelin loss, axonal degeneration) [7]: more than 500 μg/kg
CC[C@@H](C(=O)O)[C@@H]1O[C@@H]([C@@H](C)[C@H](O)[C@H](C)C(=O)[C@H](CC)[C@H]2O[C@]3(C=C[C@@H](O)[C@]4(CC[C@@](C)([C@H]5CC[C@](O)(CC)[C@H](C)O5)O4)O3)[C@H](C)C[C@@H]2C)[C@@H](C)C[C@@H]1C [LP 4525, Narasin] | – | – | – | – | MIC50 [3]: 0.25 mg/L (≈ 0.327 µM); MIC90 [3]: 1 mg/L (≈ 1.31 µM)
CC1(C)S[C@@H]2[C@H](NC(=O)[C@H](N)c3ccccc3)C(=O)N2[C@H]1C(=O)O [ampicillin] | – | – | – | – | decrease in the number of viable bacteria (MRSA 9; all concentrations tested): > 3 log10; decrease in the number of viable bacteria ([2]; all concentrations tested): > 3 log10
CC[C@@]1([C@@H]2O[C@@H]([C@H]3O[C@@](O)(CO)[C@H](C)C[C@@H]3C)C[C@@H]2C)CC[C@H]([C@]2(C)CC[C@]3(C[C@H](O)[C@@H](C)[C@@H]([C@@H](C)[C@@H](OC)[C@H](C)C(=O)O)O3)O2)O1 [LP 9666, Monensin] | considerably lower than ampicillin | 128 (≈ 191 µM) | – | – | –
